We go through two compounds from patent publication US11179375B2, “Methods and drug products for treating Alzheimer's disease” (Zinfandel Pharmaceuticals, Inc., priority 2011, dated 2021).

Counter-ions that a name gives are not always drawn. Like-named read-outs stand apart in the source and are kept apart here.

One data set concerns rat brain. In words: Rat BOLD fMRI study of resting state functional connectivity. It counts as in vivo. As for the experimental part:
BOLD fMRI was used to measure drug-related changes in resting state functional connectivity across the whole brain.
Adult male Wistar rats (275±25 g) were housed separately and maintained on a 12-h light, 12-h dark schedule. Food and water was provided ad libitum. Animals were cared for in accordance with the guidelines published in the Guide for the Care and Use of Laboratory Animals (National Institutes of Health Publications No. 85-23, Revised 1985). Animal body weights were measured approximately 24 hours before Day −3, and on Study Days 3 and 6.
Pioglitazone HCl (PIO) was dissolved in 0.5 mol/L citric acid (CA) to yield a stock solution at a concentration of 0.32 mg/10 mL/kg. Other dosages were prepared by appropriate dilution of the stock solution with 0.5 mol/L CA to yield dose volumes of 10 mL/kg. Control rats received the vehicle at 10 mL/kg. Dose concentrations were based on the weight of the test article as supplied (i.e., as the HCl salt), with the dose adjusted to the most recent body weight of the animal. Daily dosing with PIO in solution was by oral gavage at approximately the same time every day. Animals were anesthetized lightly with isoflurane immediately beforehand to facilitate dosing.
All animals used in the imaging studies were acclimated to the MRI holding device by being placed in it for 15-90 minutes daily for at least 7 days, as previously described (Zhang et al. 2010 J Neurosci Methods 189: 186-196; Liang et al. 2011 J Neurosci 31: 3776-3783).
After the acclimation period, animals were assigned to 1 of 7 treatment arms matched for mean body weights (see Table 1). Dosing occurred once daily, at approximately the same time every day. All animals were imaged at Baseline (Study Day −3), approximately 2.5 to 3 h after dosing with vehicle. Dosing began 3 days later (Study Day 1). On this day, all animals were administered either vehicle (CA) or PIO depending on their group assignment. On Study Day 2, one vehicle group and one group treated with PIO at 0.08 mg/kg/day (Acute Arm) were imaged approximately 2.5 to 3 h after dosing. For all groups, dosing continued for seven days total. On Study Day 7, all rats were imaged approximately 2.5 to 3 h after administration of the final dose.
Animal preparation activities related to imaging were initiated to insure that the imaging itself occurred approximately 2.5 to 3 h after dosing. The animals were prepared for positioning in the restraint under isoflurane anesthesia as previously described (Zhang et al. 2010, supra). […] Imaging was conducted on awake animals.
All MR experiments were conducted using a 4.7 T/40 cm horizontal magnet (Oxford, UK) interfaced with a BiospecBruker console (Bruker, Germany) and equipped with a 20 G/cm magnetic field gradient. A dual ^1H radiofrequency (RF) coil configuration (Insight Neurolmaging Systems, Worcester, Mass.) consisting of a volume coil for exciting the water proton spins and a surface coil for receiving MRI signal was used; the volume and surface coils were actively tuned and detuned to prevent mutual coil coupling. This dual-coil configuration allowed for sufficient RF field homogeneity in the rat brain for RF transmission, while preserving the advantage of higher signal-to-noise ratio (SNR) provided by the smaller reception coil.
Anatomical images were acquired first using a multi-slice fast spin-echo sequence (RARE) with the parameters: repetition time (TR)=2125 ms; RARE factor=8; effective echo time (TE)=50 ms; matrix size=256×256; field of view (FOV)=3.2×3.2 cm^2; slice number=18; slice thickness=1 mm; n=8.

The nature of another data set: in vivo. To be noted: rat. The text has this:
(§1) Extrapolation to the corresponding dosage in humans was achieved while adjusting for the relative AUC for each.

Data set [1] can be described thus: Human exposure (AUC) used for dose extrapolation. Conditions: in vivo, humans, dose of 7.5 mg.
Description: as §1

Data set [2] relates to cell death due to glucose deprivation. To be noted: cited from earlier work.
Data set [3] relates to diabetic patients with AD or mild cognitive impairment. To be noted: placebo-controlled clinical trials; cited from earlier work.
In data set [4] the test system is neuronal insulin resistance. To be noted: cited from earlier work.
Data set [5] deals with transgenic mouse models of AD, and mouse and rat models of neurodegeneration or brain injury. To be noted: in vivo; cited from earlier work.

In the case of `CCc1ccc(CCOc2ccc(CC3SC(=O)NC3=O)cc2)nc1` (stereo not shown) [PIO, Pioglitazone HCl], in the data set on rat brain (0.08 mg/kg/day, earliest time point assayed after initiation of treatment), the “time at which functional changes were induced” value was at most 24 h. For the same compound, the “fMRI signal relative to lower dosages” value in the data set on rat brain (0.32 mg/kg/day, appearance in FIG. 1, to be confirmed) is “diminished signal”. The “dose that induced functional changes at earliest time point” value with rat brain (24 hours after initiation of treatment) is recorded as at least 0.08 mg/kg/day. The “dose that induces change in metabolism in deep subcortical structure of the rat brain (fMRI)” value in the data set on rat brain (group-averaged fMRI signal, treatment day 7, relative to vehicle control) was at least 0.04 mg/kg/day. In addition, the “blood brain barrier penetration” value in the data set on rat brain (low-dose PIO, administered orally, concluded from fMRI changes) is “penetrates the blood brain barrier”. In the data set with rat brain (oral, relative to vehicle control), the “dose that induces changes in multiple brain regions” value is listed as at least 0.04 mg/kg/day. Further, the AUC (usually the area under the concentration-time curve, a measure of exposure) in “in vivo” (Wistar, po, 0.04 mg/kg/day) was 570 ng·h/mL; in the data set “in vivo” (Wistar, po, 0.08 mg/kg/day) it was 1140 ng·h/mL; in “in vivo” (Wistar, po, 0.16 mg/kg/day), 2280 ng·h/mL; in the data set “in vivo” (Wistar, po, 0.32 mg/kg/day), 4550 ng·h/mL; in “in vivo” (0.5 mg/kg/day), 7110 ng·h/mL; in data set [1], 2800 ng·h/mL.

Take `CCc1ccc(CCOc2ccc(CC3SC(=O)NC3=O)cc2)nc1` (stereo not shown) [pioglitazone, Pioglitazone]: the “change in metabolism in the central region of the deep cortical structures of the brain (fMRI)” value with rat brain (even the lowest doses, orally-administered, immediate release) is on record as “produce a change in metabolism”. Moreover, under “0.5 mg dose”, the brain concentration entry is “approximately 6.7 nM” and the serum concentration result is recorded as “approximately 33.3 nM”. Besides, under “1.5 mg dose”, the brain concentration result was “approximately 20 nM” and the serum concentration result is “approximately 100 nM”. Moreover, where the note is “4.5 mg dose”, the brain concentration result is “approximately 50 nM” and the serum concentration entry was “approximately 300 nM”. For the setting “9 mg dose”, the brain concentration entry is recorded as “approximately 120 nM” and the serum concentration entry is on record as “approximately 600 nM”. In addition, in data set [2], the “concentration that significantly reduces cell death due to glucose deprivation” value is on record as at least 1 nM; the “expression of NRF1, TFAM1 and UCP-2” value is given as “increases expression”. In data set [3], the cognition entry is recorded as “improved”, the hyperinsulinemia entry is on record as “improved” and the “regional cerebral blood flow” value was “improved regional cerebral blood flow”. In addition, in data set [4], the neuronal insulin resistance entry is “improves neuronal insulin resistance”. Besides, the “reported effects in animal models (amyloid plaque burden, brain glucose utilization, inflammation, oxidative stress, memory and learning deficits, neurogenesis)” value in data set [5] is recorded as “Beneficial effects”.
